{
  "source": "patent US8728439B2",
  "about": "“System and method for indirectly measuring calcium ion efflux” (Celtrast LLC, priority 2008, dated 2014)",
  "key": {"[1]": {"target": "T1, NCX (Mus musculus, UniProt P70414)", "T1 construct": "from tissue; host or cells: myocardium (left ventricular free wall) of living C57Bl/6 mice", "assay": "MEMRI T1-mapping of LV Wall ΔR1 washout (Mn2+ efflux) after MnCl2 infusion, with or without NCX inhibitor", "format": "in vivo, C57Bl/6 mice", "conditions": "for average LV Wall ΔR1: 4.9-5.9 hours post-MnCl2 infusion; for ΔR1,0 (extrapolated ΔR1 at the time of MnCl2 infusion): fit t>=1 hour"}, "[2]": {"assay": "Absolute Mn content in heart tissue by ICP-MS", "format": "in vivo, C57Bl/6 mice", "conditions": "50 mg/kg SEA0400; approximately 6 hours post-MnCl2", "protocol": "As previously stated, all mice were anesthetized during the experimental procedures: contrast agent infusion, drug administration, and imaging sessions. The mice were allowed to recover between procedures so as to […] the time each mouse was under anesthesia to 2.5 hours, which was then followed by a recovery period of at least 2.5 hours. This protocol minimized any physiological effects caused by the anesthesia; imaging time points selected for each mouse followed these guidelines. In addition, efforts were made to alter the time interval between successive data points so as not to bias the results with potential anesthesia effects. […] A subgroup of randomly selected animals (n=16) was sacrificed immediately after imaging to measure absolute Mn content in heart tissue (n=14) and blood samples (n=6) by inductively coupled plasma-mass spectrometry (ICP-MS) analysis ([…] Ltd., North Vancouver, BC, Canada). The samples were harvested approximately one hour after the initiation of the final T1-map. This time delay was due to the length of time required to acquire the T1-map, and the time required to harvest the samples, and remained constant for all of the samples. […] No statistically significant differences between the groups were found following linear least-square fitting to the data. […]"}, "[3]": {"assay": "Heart rate post-MnCl2 infusion", "procedure": "MEMRI experiments were performed in 62 healthy adult male C57Bl/6 mice (6-14 weeks old, 24.0±1.9 g) following the guidelines of the Institutional Animal Care and Use Committee at the Medical College of Georgia, Augusta, Ga., USA. For all experimental procedures, the animals were anesthetized with a mixture of medical air, oxygen (1:1) and 2.5-3.0% isoflurane. The heart rate (HR) was maintained at 436±42 beats per minute (bpm) throughout the experiment by carefully adjusting the level of isoflurane. A custom-made water bed set at 38° C. maintained a constant animal body temperature in the cradle throughout the MEMRI procedure.\nMEMRI data were acquired on a 7.0-T 20-cm horizontal bore Bruker BioSpec MRI spectrometer (Bruker Instruments, Billerica, Mass., USA) equipped with a micro-imaging gradient insert (950 mT/m). […] A standard Bruker volume coil (35 mm inner diameter) was used to transmit and receive at ^1H frequency (300 MHz). Electrocardiographic (ECG) and respiratory signals were monitored by a physiological monitoring system (SA Instruments, INC., Stony Brook, N.Y.) with the ECG signal used to gate the images. All images were gated from the ECG R-wave acquired during end-diastole. Short axis images were acquired midway through the left ventricle and perpendicular to the long axis of the heart. A T1-weighted MRI Gradient Echo Flow Compensation (GEFC) pulse sequence was used for slice localization with the imaging parameters as follows: matrix=128×128; TE=3.5 ms; TR=35 ms; slice thickness=1.0 mm; FOV=3.0×3.0 cm; flip angle=60° and NA=6. TR was purposely set at a time shorter than the R-R period (138±1.5 ms) detected on the ECG. Therefore, the true repetition time for the imaging sequence was the R-R period."}},
  "data": [
    {"smiles": "CCOc1ccc(Oc2ccc(OCc3cc(F)ccc3F)cc2)c(N)c1", "note": "[SEA0400]", "values": [
      {"measurement": "average LV Wall ΔR1", "setting": "[1]; 20 mg/kg SEA0400", "value": "1.72 ± 0.24", "unit": "s⁻¹"},
      {"measurement": "half-life versus control group (extra sum-of-squares F test)", "setting": "[1]; 20 mg/kg SEA0400, p=0.54", "value": "not statistically different from the control group"},
      {"measurement": "ΔR1,0 (extrapolated ΔR1 at the time of MnCl2 infusion)", "setting": "[1]; 20 mg/kg SEA0400 i.p. one hour post-MnCl2", "value": "4.8 ± 0.2", "unit": "s⁻¹"},
      {"measurement": "average LV Wall ΔR1", "setting": "[1]; 50 mg/kg SEA0400", "value": "2.46 ± 0.29", "unit": "s⁻¹"},
      {"measurement": "half-life versus control group (extra sum-of-squares F test)", "setting": "[1]; 50 mg/kg SEA0400, p=0.006", "value": "significantly different from the control group"},
      {"measurement": "ΔR1,0 (extrapolated ΔR1 at the time of MnCl2 infusion)", "setting": "[1]; 50 mg/kg SEA0400 i.p. one hour post-MnCl2", "value": "4.3 ± 0.4", "unit": "s⁻¹"},
      {"measurement": "absolute cardiac Mn concentration", "setting": "[2]", "value": 27.1, "unit": "µg/g"},
      {"measurement": "average post-MnCl2 infusion heart rate", "setting": "[3]; 20 mg/kg SEA0400", "value": "449±30", "unit": "bpm"},
      {"measurement": "average post-MnCl2 infusion heart rate", "setting": "[3]; 50 mg/kg SEA0400", "value": "443±28", "unit": "bpm"},
      {"measurement": "difference in heart rate between the experimental groups", "setting": "[3]; control, 20 mg/kg and 50 mg/kg SEA0400, p=0.08", "value": "No significant differences in HR"}
    ]}
  ]
}
